# Experimental data from patent publication US5846755A (priority 1995, dated 1998).
# Square brackets hold non-standard residues; d marks the D form. Peptide text beside a SMILES is read from it. * marks the point of attachment. Pip = O=C(O)[C@@H]1CCCCN1; Cbz = O=C(OCc1ccccc1)*
# Tests used:
# [1] = target: T1, recombinant human gelatinase B (Homo sapiens, UniProt P14780); experiment: In vitro effects on recombinant human gelatinase B; format: biochemical
# T1 construct: purchased Stangeways Laboratories, Cambridge, UK (so in the source)
# Protocol: Assays on human gelatinase B, another enzyme released by tumor cells, were performed using also, in this case, the protein obtained by recombinant biotechnology Stangeways Laboratories, Cambridge, UK). As usual, the enzymatic activity was followed over time, measuring the amount of fluorescent substrate cleaved by the enzyme, in the presence or absence of synthetic compounds (Perkin Elmer L50 B fluorimeter).
# [2] = target: enzyme purified from the venom of Crotalus Adamanteus (hemorrhagin) (Crotalus adamanteus, UniProt P34179); format: biochemical; details: read-out: IC50
# [3] = tested on: human melanoma cell line VMM-5; experiment: Matrigel-based invasion assay with human melanoma cells; format: cell-based; details: Concentration 500 micro M, VMM-5 cells, 20 hours
# From the text: In order to obtain information about the possible interference of the synthesized compounds on the ability of tumor cells to migrate through the body (metastatization), the human melanoma cell line VMM-5 was used in the matrigel-based invasion assay, in which basal membrane matrigel (Becton Dickinson) and tissue culture inserts with 8 microns pore size in 24 well tissue culture plates were used as Boyden chambers. The chambers were coated with diluted matrigel and allowed to dry overnight; they were then reconstituted with serum free medium, and melanoma cells (4,000,000/ml) were dispensed in each insert. In the lower chambers, a chemoattractant was included. The chambers were finally placed in a humidified CO2 incubator at 37° C., and incubated for 20 hours. The inserts were dried and the cells on the upper surface removed. The polycarbonate filters were fixed with methanol, stained with hematoxylin and eosin, and counted with a microscope. Inhibition of migration due to compounds has been expressed as a percentage of the total number of migrated cells in the control chambers containing only the buffer in which the compounds were dissolved.
# [4] = target: neutrophil collagenase (recombinant human) (Homo sapiens, UniProt P22894); experiment: In vitro assays on recombinant human collagenase; format: biochemical
# Protocol: Using the same enzymatic determination already described (fluorimetric detection of cleavage of a substrate peptide containing a fluorescent moiety), some of the compounds were tested on neutrophil collagenase, an enzyme described as participating in any kind of inflammatory reaction in mammalian bodies. In this case, the purified enxzyme was also obtained by recombinant means.
# [5] = Resistance to proteolytic activity in stomach juices (rat stomach homogenate, HPLC); details: 37° C.
# Protocol: To check if the compounds of the present invention are resistant to proteolytic activity in stomach juices and, therefore, could be administered orally, the stomachs of fasting rats were homogenized in physiological solutions (1:1). 300 microliters of solutions of the compounds (1 mg/ml of saline) were incubated with 0.5 ml of stomach homogenates (37° C.).
# [6] = target: T2, recombinant human gelatinase A (Homo sapiens, UniProt P08253); experiment: In vitro effects on recombinant human gelatinase A; format: biochemical
# T2 construct: purchased Strangeways Laboratories, Cambridge, UK
# T2 sequence (P08253 110-660): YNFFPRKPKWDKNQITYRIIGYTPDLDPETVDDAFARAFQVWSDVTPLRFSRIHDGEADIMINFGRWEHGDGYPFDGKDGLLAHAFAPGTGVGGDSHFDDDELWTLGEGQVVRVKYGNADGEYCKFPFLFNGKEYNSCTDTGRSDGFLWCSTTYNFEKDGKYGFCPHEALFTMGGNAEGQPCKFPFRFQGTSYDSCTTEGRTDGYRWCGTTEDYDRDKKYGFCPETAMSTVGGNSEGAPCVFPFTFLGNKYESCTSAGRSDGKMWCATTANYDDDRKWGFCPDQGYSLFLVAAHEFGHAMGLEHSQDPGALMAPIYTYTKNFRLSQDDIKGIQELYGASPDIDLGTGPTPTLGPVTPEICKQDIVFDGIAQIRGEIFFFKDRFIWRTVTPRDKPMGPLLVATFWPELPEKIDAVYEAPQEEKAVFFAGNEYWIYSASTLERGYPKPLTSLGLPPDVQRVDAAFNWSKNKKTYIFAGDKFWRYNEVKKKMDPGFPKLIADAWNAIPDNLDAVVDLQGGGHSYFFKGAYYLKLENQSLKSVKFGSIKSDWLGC
# From the text: Assays on human gelatinase A, an enzyme released in high concentration by any kind of tumor cells during the process of metastatization, and recognized also as a product of stimulated cells in many pathological processes, have been performed using the protein obtained by recombinant biotechnology (Strangeways Laboratories, Cambridge, UK). The enzymatic activity has been followed over time, measuring the amount of fluorescent substrate cleaved by the enzyme, in the presence or absence of synthetic compounds (Perkin Elmer L50 B fluorimeter).
# T1 sequence (P14780 94-707): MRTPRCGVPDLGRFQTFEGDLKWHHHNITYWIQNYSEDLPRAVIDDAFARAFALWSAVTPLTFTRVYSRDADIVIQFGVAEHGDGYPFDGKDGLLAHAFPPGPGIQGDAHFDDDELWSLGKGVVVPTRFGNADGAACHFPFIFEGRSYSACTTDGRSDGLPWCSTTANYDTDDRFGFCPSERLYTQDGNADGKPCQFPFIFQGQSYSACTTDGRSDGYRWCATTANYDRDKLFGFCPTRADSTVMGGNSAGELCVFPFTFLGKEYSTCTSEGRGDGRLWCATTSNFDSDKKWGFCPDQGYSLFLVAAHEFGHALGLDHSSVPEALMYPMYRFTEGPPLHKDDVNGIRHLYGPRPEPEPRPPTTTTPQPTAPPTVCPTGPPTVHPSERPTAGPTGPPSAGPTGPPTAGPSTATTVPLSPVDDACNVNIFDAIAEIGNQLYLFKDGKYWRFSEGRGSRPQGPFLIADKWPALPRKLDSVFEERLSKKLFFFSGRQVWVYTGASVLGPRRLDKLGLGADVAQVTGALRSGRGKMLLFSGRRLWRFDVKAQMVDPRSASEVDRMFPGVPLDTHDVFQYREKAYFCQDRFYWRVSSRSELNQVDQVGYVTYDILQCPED
# neutrophil collagenase (recombinant human), sequence (P22894 101-467): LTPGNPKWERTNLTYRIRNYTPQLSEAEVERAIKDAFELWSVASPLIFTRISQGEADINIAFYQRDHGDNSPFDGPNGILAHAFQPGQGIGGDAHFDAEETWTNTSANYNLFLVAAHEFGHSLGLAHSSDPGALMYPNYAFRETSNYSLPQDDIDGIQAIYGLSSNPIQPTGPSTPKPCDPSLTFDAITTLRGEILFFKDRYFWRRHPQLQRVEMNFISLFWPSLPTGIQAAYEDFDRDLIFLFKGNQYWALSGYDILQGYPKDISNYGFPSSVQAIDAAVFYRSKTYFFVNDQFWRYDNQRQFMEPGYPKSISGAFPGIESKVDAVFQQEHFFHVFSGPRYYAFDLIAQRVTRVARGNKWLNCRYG
# enzyme purified from the venom of Crotalus Adamanteus (hemorrhagin), sequence (P34179 whole entry, looked up): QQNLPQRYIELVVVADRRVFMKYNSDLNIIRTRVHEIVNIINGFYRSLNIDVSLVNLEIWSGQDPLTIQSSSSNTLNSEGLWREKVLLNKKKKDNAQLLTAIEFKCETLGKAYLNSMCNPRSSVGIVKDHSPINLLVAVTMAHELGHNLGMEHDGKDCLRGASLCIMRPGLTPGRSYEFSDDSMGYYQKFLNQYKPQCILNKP
compound,measurement,setting,value
"Cc1cnc(C(=O)N[C@@H](CC(C)C)C(=O)N2Cc3[nH]c4ccccc4c3C[C@H]2C(=O)O)cn1 [Compound 21, 5-MPZ--(L)--Leu--(S)--Cyt--OH]",% Inhibition,[1]; Concentration 5.5 × 10^-6 M,43%
same,IC50,[2],44 nM
"COc1ccc(C(=O)N[C@@H](CC(C)C)C(=O)N2Cc3[nH]c4ccccc4c3C[C@H]2C(=O)O)c(OC)c1 [Compound 24, 2,4-Dimethoxybenzoyl--(L)--Leu--(S)--Cyt--OH]",% Inhibition of Invasion,[3],100%
same,% Inhibition,[4]; Concentration 2.0 × 10^-5 M,19%
same,% Inhibition,[1]; Concentration 1.0 × 10^-5 M,48%
same,IC50,[2],98 nM
"CC(C)C[C@H](NC(=O)c1ccc([N+](=O)[O-])cc1)C(=O)N1Cc2[nH]c3ccccc3c2C[C@H]1C(=O)O [Compound 26, 4-NBZ--(L)--Leu--(S)--Cyt--OH]",Residue after 60 Minutes,[5],100%
same,Residue after 120 Minutes,[5],> 95%
same,IC50,[2],95 nM
"CC(C)C[C@H](NC(=O)c1ccc(Cl)cc1)C(=O)N1Cc2[nH]c3ccccc3c2C[C@H]1C(=O)O [Compound 27, 4-CBZ--(L)--Leu--(S)--Cyt--OH]",% Inhibition,[4]; Concentration 2.1 × 10^-5 M,28%
same,IC50,[2],100 nM
"CC(C)C[C@H](NC(=O)c1cccnc1)C(=O)N1Cc2[nH]c3ccccc3c2C[C@H]1C(=O)O [Compound 28, 3-NIC--(L)--Leu--(S)--Cyt--OH]",IC50,[2],100 nM
"CC(C)C[C@H](NC(=O)c1ccncc1)C(=O)N1Cc2[nH]c3ccccc3c2C[C@H]1C(=O)O [Compound 29, 4-NIC--(L)--Leu--(S)--Cyt--OH]",IC50,[2],400 nM
"COc1ccc(C(=O)N[C@@H](CC(C)C)C(=O)N2Cc3[nH]c4ccccc4c3C[C@H]2C(=O)O)cc1OC [Compound 30, 3,4-DMB--(L)--Leu--(S)--Cyt--OH]",Residue after 60 Minutes,[5],100%
same,Residue after 120 Minutes,[5],> 95%
same,IC50,[2],380 nM
"O=C(N[C@@H](Cc1c[nH]c2ccccc12)C(=O)N1Cc2[nH]c3ccccc3c2C[C@H]1C(=O)O)c1ccco1 [Compound 34, 2-FUR--(L)--Trp--(S)--Cyt--OH]",IC50,[2],400 nM
"NC(=O)C[C@H](NC(=O)c1ccco1)C(=O)N1Cc2[nH]c3ccccc3c2C[C@H]1C(=O)O [Compound 35, 2-FUR--(L)--Asn--(S)--Cyt--OH]",IC50,[2],8000 nM
"O=C(NCCCC[C@H](NC(=O)c1ccco1)C(=O)N1Cc2[nH]c3ccccc3c2C[C@H]1C(=O)O)OCC1c2ccccc2-c2ccccc21 [Compound 36, 2-FUR--(L)--Lys(Fmoc)--(S)--Cyt--OH]",IC50,[2],100 nM
"CC(C)C[C@H](NC(=O)c1cccc2ccccc12)C(=O)N1Cc2[nH]c3ccccc3c2C[C@H]1C(=O)O [Compound 37, 1-NAF--(L)--Leu--(S)--Cyt--OH]",IC50,[2],210 nM
CC(C)C[C@H](NC(=O)c1ccc[nH]1)C(=O)N[C@@H](Cc1c[nH]c2ccccc12)C(=O)O [Pirr--Leu--Trp],% Inhibition,[4]; Concentration 1.1 × 10^-5 M,15%
same,% Inhibition,[6]; Concentration 9.0 × 10^-6 M,33%
CC(C)C[C@H](NC(=O)c1cccs1)C(=O)N[C@@H](Cc1c[nH]c2ccccc12)C(=O)O [Tiof--Leu--Trp],% Inhibition,[6]; Concentration 8.0 × 10^-6 M,60%
CC(C)C[C@H](NC(=O)[C@@H]1CCCCN1C(=O)OCc1ccccc1)C(=O)N[C@@H](Cc1c[nH]c2ccccc12)C(=O)O [Z--Pip--Leu--Trp] (Cbz-[Pip]-Leu-Trp-OH),% Inhibition,[6]; Concentration 9.0 × 10^-6 M,63%
BZS--(L)--Phe--(S)--Cyt--OH [Compound 32],% Inhibition,[1]; Concentration 1.0 × 10^-5 M,42%
same,IC50,[2],2000 nM
MePro--Ala--Cyt,% Inhibition,[6]; Concentration 9.0 × 10^-6 M,39%
MePro--Leu--Cyt,% Inhibition of Invasion,[3],40%
same,% Inhibition,[1]; Concentration 1.1 × 10^-5 M,37%
